This data set can be described thus: Solubility in water of the surfactant. In kind it is physicochemical. The note with it: water at 25° C. Here is the method: As long as the above-described surfactant adhered to a base membrane includes at least a surfactant (A) soluble in water and a surfactant (B) insoluble in water, the above-described surfactant adhered to a base membrane may also include another surfactant (i.e., a surfactant having a solubility in water of 0.1 g based on 100 g of water to 5 g based on 100 g of water.)
(7) Solubility in Water (g Per 100 g of Water)
Aliquots, each of which is 0.01 g of a surfactant, were added one by one to 100 g of water at 25° C. while stirring. The total amount of the surfactant added (g) when the solution changed from clear to opaque was taken as the degree of the solubility in water

With `CCCCCCCC/C=C/CCCCCCCC1=NCCN1CCO` [oleyl imidazoline], the Solubility in water is ≤ 0.1 g per 100 g of water.

As to polyoxyethylene alkyl ether, the Solubility in water was ≥ 5 g per 100 g of water.

These data come from patent US20140335396A1, “Microporous Membrane” (ASAHI KASEI E-MATERIALS CORPORATION, priority 2011, published 2014).
